Test results taken from publication PMC9408991, “Antitumor Effects of a New Retinoate of the Fungal Cytotoxin Illudin M in Brain Tumor Models” (International Journal of Molecular Sciences, 2022).

How the values were obtained:
NE-4C neural stem cells = experiment: Neuronal differentiation of NE-4C neural stem cells (β-tubulin III staining); type: cell-based, mouse; conditions: 10 nM, β-tubulin III staining
Experimental: NE-4C cells and their differentiated progeny neurons can be immunohistochemically distinguished by the presence of β-tubulin III only in the latter (Figure 3).
Astroglia cells grown on poly-L-lysine-coated glass cover slips were fixed with 4% paraformaldehyde in PBS for 20 min at room temperature and then permeabilized with Triton X-100 (0.1% v/v in PBS; 5 min). Nonspecific antibodies were blocked by incubation with 3% FBS in PBS (room temperature, 1 h). α-GFAP antibody (rabbit, DAKO) was used in a dilution of 1:2000 and was visualized by anti-rabbit IgG Alexa 594 (1:1000). DAPI (4′,6-diamidino-2-phenylindole) was used for nuclei staining. Fluorescence images were captured manually on a Zeiss Axiovert 200 M microscope fitted with 20- to 60-fold zoom and a Zeiss AxioCam MRm digital camera. Further applied antibodies were tubulin III (Sigma T5076), used at a dilution of 1:1000, and Annexin V. Cy3.18 (Sigma A4963).

[1] = test system: retinoid-responsive elements (RARE); experiment: RA reporter assay, F9 RARE-lacZ reporter cells; type: cell-based; conditions: 10 nM; control 45
Excerpt: More typical of retinoic acid is its contribution to cell differentiation during vertebrate embryonic development by interacting with nuclear receptors, which bind to specific retinoid-responsive elements (RARE) within the promoters of subordinate genes, activating their transcription. To verify that retinoate 2 also binds to RARE, we used a reporter assay with F9 teratocarcinoma cells featuring a RARE located within the cis-acting regulatory sequences of the human retinoic acid receptor alpha gene and immediately upstream of the E. coli lacZ genes, which thus acquire retinoid responsivity. LacZ expression in cells treated with various concentrations of 2 was then quantitated by densitometric analysis of β-galactosidase activity visualized by X-Gal staining.
The F9 embryonal carcinoma cell line, stably transfected with the 1.8 kb promoter sequence of RARb2 coupled to the lacZ gene, was used to measure active retinoids. The assay is appropriate for detection of all-trans RA but is able to detect other retinoid isomers as well. The F9 reporter cells were maintained in 10% FCS containing DMEM in the presence of 400 ug/mL G418. A day before the assay, F9 cell were seeded onto 24-well plates (100,000 cell/well). The cells were than treated with various concentrations of 2. […]

CC1=C(/C=C/C(C)=C/C=C/C(C)=C/C(=O)O)C(C)(C)CCC1 [all-trans retinoic acid, reference compound]
differentiation of NE-4C stem cells to neurons (NE-4C neural stem cells): differentiate to neurons
gray value (densitometric analysis of β-galactosidase activity) [1]: 175
